Here are results for two substances from US9555058B2, “Antigen presenting cancer vaccine” (CALIFORNIA STEM CELL, INC., priority 2011, dated 2017).

What all share (format): cell-based, human
One test concerns SK-5-Mel cells. As to the kind of experiment: Autophagy by flow cytometry (Enzo CytoID Autophagy Detection), IFN-gamma with or without z-VAD. To be noted: 1000 IU/mL IFN-gamma 72 hours; 20 uM z-VAD where present; vs 5% FBS/RPMI. Here is the method: FIGS. 6A and 6B reveal apoptosis and autophagy induced in response to interferon-gamma. SK-5-Mel cells were incubated with 1000 IU/mL of IFN-gamma for 72 hours after which non-adherent and adherent populations were collected and assayed for apoptosis and autophagy by flow cytometry using […] and Annexin-V (FIG. 6A). Enzo Cyto-ID Autophagy Detection Dye was used to measure autophagy by flow cytometry by measuring the mean intensity peak shift of dye provided by the manufacturer (FIG. 6B). Fold changes in the peak shift in comparison to 5% FBS/RPMI are shown in FIG. 6C with serum-free as positive control for the induction of autophagy.
SK-5-Mel cells were treated with 1000 IU/mL of IFN-gamma in the presence of 20 uM of the pan-caspase inhibitor z-VAD or its control compound, z-FA for 72 hours. The cells were harvested and assayed for autophagy by flow cytometry as in FIG. 6C.
The methodology of the study was as follows. […] Autophagy was detected by immunobloting with antibodies against LC3 II and by flow cytometry with Enzo's CytoID® Autophagy Detection Kit. […]
What was investigated was the induction of autophagy, apoptosis and MHC class II molecules after IFN-gamma treatment of melanoma tumor cells in vitro. […] Autophagy was detected by immunobloting with antibodies against LC3 II and by flow cytometry with Enzo's CytoID Autophagy Detection Kit. […]
(In general: A flow cytometer gives signals particle by particle.)

Another test deals with MHC class II. As to the kind of experiment: Flow cytometry of MHC class II induction by IFN-gamma in autologous tumor cells. The following applies: 1000 IU/mL IFN-gamma 72 hours. As for the experimental part: (§1) FIGS. 2A-D show characterization of IFN-gamma treated autologous tumor cells used for loading dendritic cells. Autologous melanoma tumor cells were treated with or without 1000 IU/mL IFN-gamma for 72 hours in 15% FBS/ECS in RPMI, harvested and irradiated with 100Gy and cryopreserved. Cells were then thawed in AIMV and a sample taken for flow cytometry and for preparation of cell lysates for immunoblotting prior to antigen loading of DCs. An example of four separate autologous melanoma cell lines is shown (FIG. 2A, FIG. 2B and FIG. 2C). Induction major histocompatibility complexes by IFN-gamma treatment of autologous tumor cells (FIG. 2D). Tumor cells were harvested after being treated with or without 1000 IU/mL IFN-gamma for 72 hours and then assayed for MHC class I and class II. Control isotype antibodies were used to identify positive populations. Dark data points indicate median mean fluorescent plus/minus 95% confidence interval. N=65. After irradiation, melanoma cells are checked by assays to ensure that there is not any mitosis.
Phenotypic characterization of the dendritic cell populations were performed using monoclonal antibodies against surface markers obtained from BD Pharmingen San Diego, Calif.: anti-MHC class II conjugated to PerCp, anti CD11c conjugated to APC, anti-CD80, anti-CD83, anti-CD86 conjugated to PE. Isotype controls were used to determine percent positive cells. […]

The test system of test [1] is autologous melanoma cell lines. As to the kind of experiment: Immunoblotting of lysates of melanoma cells incubated with or without IFN-gamma. To be noted: 1000 IU/mL IFN-gamma 72 hours; four autologous melanoma cell lines. Here is the method: as §1
Cytoplasmic cell lysates were prepared with Mammalian Protein Extraction Reagent (Thermo Scientific, Rockford, Ill.) plus protease inhibitor cocktail (Roche, Indianapolis, Ind.) at 10,000 cells/uL on ice. Approximately 25 uLs/lane of cell lysates were separated on 12.5% tris-glycine gels, transferred to PVDF membrane and probed with antibodies against the following: calreticulin (MBL, Woburn, Mass.), Hsp-60, Hsp-70, Hsp-90 (R&D Systems, Minneapolis, Minn.), HMBG-1 (Cell Signaling, Danvers, Mass.), ICAM-1 (Santa Cruz Biotech, Santa Cruz, Calif.), Mel-4, Mart-1 (Signet, Emeryville, Calif.), tyrosinase (Upstate, Lake Placid, N.Y.) and GADPH (Calbiochem, Darmstadt, Germany).
Lysates from cells that were incubated in the presence or absence of IFN-gamma were subjected to immunoblotting for a variety of molecules that may be important mediators of immunity (FIG. 1B). […]
On the technique in general: In western blotting, separated proteins are transferred to a membrane and probed.

Test [2] has as its system melanoma cell lines. As to the kind of experiment: Immunohistochemistry of a panel of melanoma associated antigens with or without IFN-gamma. The following applies: 1000 IU/mL IFN-gamma 72 hours, N=27 samples. Here is the method: Expression of a panel antigens by melanoma lines were determined using immunocytochemical procedure. Cells were cultured in 8-chamber culture slides (Thermo Fisher, Rochester, N.Y.) in the presence or absence of 1000 IU/mL IFN-gamma. After 72 hours, the cells were washed 3 times with 1× Phosphate Buffered Saline (PBS) and fixed in cold acetone. After blocking endogenous peroxidase, cells were incubated with appropriate primary antibodies against the antigens listed. Immunohistochemistry was performed using biotinylated anitmouse or rabbit immunoglobulins, Super Sensitive enzyme-conjugated streptavidin labeling and horse radish peroxidase chromogen, and substrate kits (Biogenex, San Ramon, Calif.). The reactivity of the following anti-human polyclonal or monoclonal antibodies was investigated with isotype matched control antibody: S-100 and HMB-45 (Biogenex, San Ramon, Calif.), Mel-2, Mel-5, Mart-1 (Signet, Dedham, Mass.), Tyrosinase and Mage-1 (Thermo Scientific, Fremont, Calif.), Melan-A, HLA-class I and HLA-class II (Dako, Denmark).
Lysates from cells that were incubated in the presence or absence of IFN-gamma were subjected to immunoblotting for a variety of molecules that may be important mediators of immunity (FIG. 1B). In the setting of melanoma cells treated with IFN-gamma, heat shock proteins appear to be differentially regulated but remain largely present in the cell preparations, especially in the case of hsp-70.

The test system of test [3] is autologous melanoma tumor cells. As to the kind of experiment: Trypan-blue dye exclusion viability after IFN-gamma. The following applies: IFN-gamma 72 hours in complete medium; N=47; p=0.014 vs 89.1±6.8% not treated. Here is the method: Pure tumor cells were generated according to Cornforth, et al. (Cornforth, et al. (2011) Cancer Immunol. Immunother. 60:123-131; Dillman, et al. (1993) J. Immunother. Emphasis Tumor Immunol. 14:65-69; Dillman, et al. (2000) Cancer Biother. Radiopharm. 15:161-168). The tumor cells were then incubated with 1,000 U/mL of interferon-gamma (InterMune, Brisbane, Calif.) for 72 h, irradiated with 100Gy from a cesium source and cryopreserved (Selvan, et al. (2007) Int. J. Cancer 122:1374-1383; Selvan, et al. (2010) Melanoma Res. 20:280-292). The IFN-gamma treated and irradiated tumor cells were recovered from cryopreservation, washed with phosphate buffered saline (PBS), and then added to the cultivated dendritic cells (DCs) and then incubated for about 24 h. The antigen-loaded DCs were harvested by gentle scraping with a rubber policeman and cryopreserved. Aliquots of IFN-gamma treated or untreated tumor cells and loaded DCs were obtained for flow cytometry evaluation and trypan-blue exclusion assay. […]

For test [4], the system named is melanoma cell lines. As to the kind of experiment: Apoptosis by flow cytometry using 7-AAD and annexin-V. To be noted: 1000 IU/mL IFN-gamma 72 hours with pan caspase inhibitor. As for the experimental part: The methodology of the study was as follows. Autologous and model melanoma tumor cell lines were incubated with 1000 IU/mL of IFN-gamma for 72 hours prior to assaying for autophagy, apoptosis and MHC class II expression. Autophagy was detected by immunobloting with antibodies against LC3 II and by flow cytometry with Enzo's CytoID® Autophagy Detection Kit. Apoptosis and MHC class II induction were assayed by flow cytometry using 7-AAD and annexin-V staining and antibodies against MHC class II, respectively.
Analysis of tumor cell death and changes in major histocompatibility class II expression in response to IFN-gamma were conducted by use of antibodies directed against MHC class II, annexin-V and 7-amino-actinomycin D (7-AAD) and acquired on a Beckton-Dickenson FACS Calibur® flow cytometer.
What was investigated was the induction of autophagy, apoptosis and MHC class II molecules after IFN-gamma treatment of melanoma tumor cells in vitro. Autologous and model melanoma tumor cell lines were incubated with 1000 IU/mL of IFN-gamma for 72 hours prior to assaying for autophagy, apoptosis and […] class II expression. Autophagy was detected by immunobloting with antibodies against LC3 II and by flow cytometry with Enzo's CytoID Autophagy Detection Kit. […]

“interferon-gamma [IFN-gamma, interferon-gamma (InterMune, Brisbane, Calif.), type II interferon, used at 1000 IU/mL for 72 hours on melanoma cells]”: the “autophagy, fold change of peak shift” value in the test with SK-5-Mel cells amounted to 2.75±0.15 fold change. Further, the “cases with MHC class II induction greater than two fold” value with MHC class II turned out to be 70%. In test [1], the “ICAM-1 expression (immunoblot)” value is reported as “significantly up-regulated”; the “calreticulin and HMGB-1 expression (immunoblot)” value is “up-regulated in some cases”; the “common melanoma antigens (mel-4, Mart-1 and tyrosinase) expression (immunoblot)” value is reported as “down regulated”. Also, the “Change after IFN-gamma treatment: Down” value in the test with melanoma cell lines [2] (antigen MAGE-1) worked out at 61.5%. Further, the “Change after IFN-gamma treatment: None” value with melanoma cell lines [2] (antigen Mel-2) came out at 46.2%. For the same substance, in the test with melanoma cell lines [2] (antigen Tyrosinase), the “Change after IFN-gamma treatment: Down” value came to 60.0% and the “Change after IFN-gamma treatment: None” value is reported as 40.0%. Besides, the “viability (trypan-blue dye exclusion)” value in test [3] was 84.9±9.3%.
For “carbobenzoxy-valyl-alanyl-aspartyl-[O-methyl]-fluoromethylketone [Z-VAD]”, the “apoptosis in IFN-gamma treated cells” value with melanoma cell lines [4] is reported as “prevents apoptosis”.
